Data on nine molecules can be found in ChEMBL document CHEMBL1806439, “Synthesis and antihistamine evaluations of novel loratadine analogues” (2011).

The target of assay [1] is Histamine H1 receptor (Cavia porcellus) (UniProt P31389). In words: Inhibition of histamine H1 receptor in guinea pig ileum assessed as inhibition of histamine-induced muscle spasms at 2 x 10 '-3 mg/ml after 5 mins (reference value: 0.31 %). It is filed as tissue-based.
Assay [2] concerns Cavia porcellus. In words: Antiasthmatic activity in guinea pig assessed as inhibition of histamine phosphate solution-induced asthmatic reaction measured as increase in asthmogenic latency period at 0.5 mg/kg administered as intragastric (reference value: 99.30 +/- 30.06 sec). It counts as functional.
The test system of assay [3] is Cavia porcellus. In words: Antiasthmatic activity in guinea pig assessed as inhibition of histamine phosphate solution-induced asthmatic reaction measured as increase in asthmogenic latency period at 0.2 mg/kg administered as intragastric (reference value: 95.50 +/- 18.98 sec). It is filed as functional.

Broadly, the inhibition is how much of the control response was suppressed.

Chain of Histamine H1 receptor (Cavia porcellus) (P31389 whole entry): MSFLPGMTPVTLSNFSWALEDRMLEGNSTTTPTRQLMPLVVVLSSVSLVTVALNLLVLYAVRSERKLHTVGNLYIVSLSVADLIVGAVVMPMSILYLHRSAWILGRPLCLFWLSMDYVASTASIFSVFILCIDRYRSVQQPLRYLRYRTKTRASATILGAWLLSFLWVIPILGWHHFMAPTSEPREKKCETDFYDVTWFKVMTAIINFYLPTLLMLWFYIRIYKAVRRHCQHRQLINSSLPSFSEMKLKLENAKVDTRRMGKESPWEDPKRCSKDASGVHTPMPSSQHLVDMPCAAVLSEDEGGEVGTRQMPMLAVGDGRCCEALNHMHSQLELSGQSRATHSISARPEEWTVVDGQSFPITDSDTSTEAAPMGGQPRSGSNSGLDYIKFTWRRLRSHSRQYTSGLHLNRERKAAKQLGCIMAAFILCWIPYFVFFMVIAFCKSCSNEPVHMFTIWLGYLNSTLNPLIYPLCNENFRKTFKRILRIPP

`C[C@@H](c1ccccc1)N1CCC(=C2c3ccc(Cl)cc3CCc3cccnc32)CC1`: the inhibition in assay [1] was found to be 32.1%. Moreover, the Time in assay [2] is on record as 273.2 s; in assay [3], 170.2 s.
The corresponding values for `OCCCN1CCC(=C2c3ccc(Cl)cc3CCc3cccnc32)CC1` are 53.7%, 360 s and 360 s.
Turning to `CC[C@@H](CO)N1CCC(=C2c3ccc(Cl)cc3CCc3cccnc32)CC1`, the inhibition in assay [1] came to 53.5%. For the same molecule, the Time is 216 s in assay [2] and 123.1 s in assay [3].
For `CN(C)CCC(c1ccc(Cl)cc1)c1ccccn1` (configuration not stated) [CHLORPHENIRAMINE], in that order: 41.3%, 214.7 s and 105.7 s.
The corresponding values for `C[C@@H](CO)N1CCC(=C2c3ccc(Cl)cc3CCc3cccnc32)CC1` are 49.7%, 209.7 s and 112.8 s.
For `CC[C@H](CO)N1CCC(=C2c3ccc(Cl)cc3CCc3cccnc32)CC1`, in that order: 29.4%, 229.2 s and 125.3 s.
Consider `OCCN1CCC(=C2c3ccc(Cl)cc3CCc3cccnc32)CC1`, for which, in assay [1], the inhibition is 50.6%. Moreover, the Time is listed as 248.5 s in assay [2] and 133.3 s in assay [3].
For `C[C@H](CO)N1CCC(=C2c3ccc(Cl)cc3CCc3cccnc32)CC1`, in that order: 32.4%, 215.6 s and 111.1 s.
For `C[C@H](c1ccccc1)N1CCC(=C2c3ccc(Cl)cc3CCc3cccnc32)CC1`, in that order: 31.4%, 309.6 s and 210.6 s.
